Source: patent US9109004B2, “Progesterone receptor antagonists” (Bayer Intellectual Property GmbH, priority 2010, dated 2015)

Target: T1, human progesterone receptor A (Homo sapiens, UniProt P06401)
T1 construct: expressed in transfected cells; host or cells: SK-N-MC human neuroblastoma cells, stably transfected
T1 sequence (P06401 1-769 isoform P06401-2): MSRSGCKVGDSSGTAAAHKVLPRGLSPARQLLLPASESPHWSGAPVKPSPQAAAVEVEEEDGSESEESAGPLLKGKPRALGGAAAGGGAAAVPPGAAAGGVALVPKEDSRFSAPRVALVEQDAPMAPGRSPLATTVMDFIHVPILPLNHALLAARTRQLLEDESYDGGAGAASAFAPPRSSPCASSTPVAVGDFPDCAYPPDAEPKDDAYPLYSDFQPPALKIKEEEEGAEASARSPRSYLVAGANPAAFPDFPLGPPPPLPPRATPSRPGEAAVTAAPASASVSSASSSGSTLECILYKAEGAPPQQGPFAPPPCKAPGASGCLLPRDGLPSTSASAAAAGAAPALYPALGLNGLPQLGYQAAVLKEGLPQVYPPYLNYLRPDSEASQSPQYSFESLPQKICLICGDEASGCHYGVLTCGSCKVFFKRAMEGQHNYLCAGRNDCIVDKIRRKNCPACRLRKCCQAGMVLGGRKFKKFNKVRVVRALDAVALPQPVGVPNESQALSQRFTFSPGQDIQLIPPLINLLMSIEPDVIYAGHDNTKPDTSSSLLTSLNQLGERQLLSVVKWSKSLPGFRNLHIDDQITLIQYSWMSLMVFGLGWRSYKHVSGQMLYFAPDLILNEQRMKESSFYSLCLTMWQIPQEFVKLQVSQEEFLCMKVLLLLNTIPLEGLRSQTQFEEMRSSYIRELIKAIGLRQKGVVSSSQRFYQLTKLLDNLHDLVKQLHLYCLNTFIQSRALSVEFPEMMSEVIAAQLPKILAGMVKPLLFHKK
Test: Progesterone-receptor-antagonistic action in stably transfected SK-N-MC cells, MTV-LUC reporter (PR-A)
Format: cell-based
Settings: antagonistic potency vs 0.1 nmol/l promegestone, 24 hours, luciferase
Procedure: Progesterone-Receptor-Antagonistic Action in Stable Transfectants of Human Neuroblastoma Cells (SK-N-MC Cells) with the Human Progesterone A or Progesterone B Receptor and an MTV-LUC Reporter Construct
SK-N-MC cells (human neuroblastoma cells) that have been stably transfected with plasmids that express the human progesterone receptor B (pRChPR-B-neo) or the human progesterone receptor A (pRChPR-A-neo) and a reporter construct (pMMTV-LUC), were incubated for 24 hours either in the absence (negative control) or in the presence of increasing amounts of the particular test compound (0.01 nmol/l, 0.1 nmol/l, 1 nmol/l, 10 nmol/l, 100 nmol/l and 1 μmol/l), to determine the agonistic efficacy. As positive control of reporter gene induction, the cells were treated with the synthetic gestagen promegestone (0.01 nmol/l, 0.1 nmol/l, 1 nmol/l, 10 nmol/l, 100 nmol/l and 1 μmol/l). For determination of the antagonistic activity, the cells were treated with 0.1 nmol/l promegestone and additionally with increasing amounts of the particular test compound (0.01 nmol/l, 0.1 nmol/l, 1 nmol/l, 10 nmol/l, 100 nmol/l and 1 μmol/l). The activity of the reporter gene LUC (LUC=luciferase) was determined in the cell lysates and was measured as RLU (relative light units). All measured values are given as % efficacy and as EC50 or IC50 concentrations.

Structure (SMILES) | IC50 [nM]
C[C@]12C[C@H](c3ccc(C(=O)N4CCN(c5ccncc5)CC4)cc3)C3=C4CCC(=O)C=C4CC[C@H]3[C@@H]1CC[C@@]2(O)C(F)(F)C(F)(F)F [Example 45, (11β,17β)-17-hydroxy-17-(pentafluoroethyl)-11-(4-{[4-(pyridin-4-yl)piperazin-1-yl]carbonyl}phenyl)estra-4,9-dien-3-one] | 26
C[C@]12C[C@H](c3ccc(C(=O)Nc4ccccn4)cc3)C3=C4CCC(=O)C=C4CC[C@H]3[C@@H]1CC[C@@]2(O)C(F)(F)C(F)(F)F [Example 11, 4-[(11β,17β)-17-hydroxy-3-oxo-17-(pentafluoroethyl)estra-4,9-dien-11-yl]-N-(pyridin-2-yl)benzamide] | 10
C[C@]12C[C@H](c3ccc(C(=O)N4CCC(c5ccccc5)CC4)cc3)C3=C4CCC(=O)C=C4CC[C@H]3[C@@H]1CC[C@@]2(O)C(F)(F)C(F)(F)F [Example 63, (11β,17β)-17-hydroxy-17-(pentafluoroethyl)-11-{4-[(4-phenylpiperidin-1-yl)carbonyl]phenyl}estra-4,9-dien-3-one] | 4.1
C[C@]12C[C@H](c3ccc(C(=O)NCCc4cccnc4)cc3)C3=C4CCC(=O)C=C4CC[C@H]3[C@@H]1CC[C@@]2(O)C(F)(F)C(F)(F)F [Example 55, 4-[(11β,17β)-17-hydroxy-3-oxo-17-(pentafluoroethyl)estra-4,9-dien-11-yl]-N-[2-(pyridin-3-yl)ethyl]benzamide] | 2.5
C[C@]12C[C@H](c3ccc(C(=O)N4CCN(C(=O)c5ccccc5)CC4)cc3)C3=C4CCC(=O)C=C4CC[C@H]3[C@@H]1CC[C@@]2(O)C(F)(F)C(F)(F)F [Example 65, (11β,17β)-11-{4-[(4-benzoylpiperazin-1-yl)carbonyl]phenyl}-17-hydroxy-17-(pentafluoroethyl)estra-4,9-dien-3-one] | 2.7
CNC(=O)CN1CCN(C(=O)c2ccc([C@H]3C[C@@]4(C)[C@@H](CC[C@@]4(O)C(F)(F)C(F)(F)F)[C@@H]4CCC5=CC(=O)CCC5=C43)cc2)CC1 [Example 71, 2-(4-{4-[(11β,17β)-17-hydroxy-3-oxo-17-(pentafluoroethyl)estra-4,9-dien-11-yl]benzoyl}piperazin-1-yl)-N-methylacetamide] | 38
CN(C)CCN1CCN(C(=O)c2ccc([C@H]3C[C@@]4(C)[C@@H](CC[C@@]4(O)C(F)(F)C(F)(F)F)[C@@H]4CCC5=CC(=O)CCC5=C43)cc2)CC1 [Example 47, (11β,17β)-11-[4-({4-[2-(dimethylamino)ethyl]piperazin-1-yl}carbonyl)phenyl]-17-hydroxy-17-(pentafluoroethyl)estra-4,9-dien-3-one] | 346
C[C@]12C[C@H](c3ccc(C(=O)N4CCOCC4)cc3)C3=C4CCC(=O)C=C4CC[C@H]3[C@@H]1CC[C@@]2(O)C(F)(F)C(F)(F)F [Example 29, (11β,17β)-17-hydroxy-11-[4-(morpholin-4-ylcarbonyl)phenyl]-17-(pentafluoroethyl)estra-4,9-dien-3-one] | 39
C[C@]12C[C@H](c3ccc(C(=O)NCCN4CCCC4)cc3)C3=C4CCC(=O)C=C4CC[C@H]3[C@@H]1CC[C@@]2(O)C(F)(F)C(F)(F)F [Example 54, 4-[(11β,17β)-17-hydroxy-3-oxo-17-(pentafluoroethyl)estra-4,9-dien-11-yl]-N-[2-(pyrrolidin-1-yl)ethyl]benzamide] | 21
C[C@]12C[C@H](c3ccc(C(=O)N4CCN(CCN5CCCC5)CC4)cc3)C3=C4CCC(=O)C=C4CC[C@H]3[C@@H]1CC[C@@]2(O)C(F)(F)C(F)(F)F [Example 48, (11β,17β)-17-hydroxy-17-(pentafluoroethyl)-11-[4-({4-[2-(pyrrolidin-1-yl)ethyl]piperazin-1-yl}carbonyl)phenyl]estra-4,9-dien-3-one] | 667
CN(CCc1ccccc1)C(=O)c1ccc([C@H]2C[C@@]3(C)[C@@H](CC[C@@]3(O)C(F)(F)C(F)(F)F)[C@@H]3CCC4=CC(=O)CCC4=C32)cc1 [Example 43, 4-[(11β,17β)-17-hydroxy-3-oxo-17-(pentafluoroethyl)estra-4,9-dien-11-yl]-N-methyl-N-(2-phenylethyl)benzamide] | 10.8
C[C@]12C[C@H](c3ccc(C(=O)N4CCN(Cc5ccncc5)CC4)cc3)C3=C4CCC(=O)C=C4CC[C@H]3[C@@H]1CC[C@@]2(O)C(F)(F)C(F)(F)F [Example 49, (11β,17β)-17-hydroxy-17-(pentafluoroethyl)-11-(4-{[4-(pyridin-4-ylmethyl)piperazin-1-yl]carbonyl}phenyl)estra-4,9-dien-3-one] | 7.6
COC(=O)N1CCN(C(=O)c2ccc([C@H]3C[C@@]4(C)[C@@H](CC[C@@]4(O)C(F)(F)C(F)(F)F)[C@@H]4CCC5=CC(=O)CCC5=C43)cc2)CC1 [Example 70, methyl-4-{4-[(11β,17β)-17-hydroxy-3-oxo-17-(pentafluoroethyl)estra-4,9-dien-11-yl]benzoyl}piperazine-1-carboxylate] | 1.7
C[C@]12C[C@H](c3ccc(C(=O)NCC4CC4)cc3)C3=C4CCC(=O)C=C4CC[C@H]3[C@@H]1CC[C@@]2(O)C(F)(F)C(F)(F)F [Example 59, N-(cyclopropylmethyl)-4-[(11β,17β)-17-hydroxy-3-oxo-17-(pentafluoroethyl)estra-4,9-dien-11-yl]benzamide] | 6.9
C[C@]12C[C@H](c3ccc(C(=O)Nc4cccnc4)cc3)C3=C4CCC(=O)C=C4CC[C@H]3[C@@H]1CC[C@@]2(O)C(F)(F)C(F)(F)F [Example 12, 4-[(11β,17β)-17-hydroxy-3-oxo-17-(pentafluoroethyl)estra-4,9-dien-11-yl]-N-(pyridin-3-yl)benzamide] | 1.32
CN(CCc1ccccn1)C(=O)c1ccc([C@H]2C[C@@]3(C)[C@@H](CC[C@@]3(O)C(F)(F)C(F)(F)F)[C@@H]3CCC4=CC(=O)CCC4=C32)cc1 [Example 50, 4-[(11β,17β)-17-hydroxy-3-oxo-17-(pentafluoroethyl)estra-4,9-dien-11-yl]-N-methyl-N-[2-(pyridin-2-yl)ethyl]benzamide] | 15.7
CN(Cc1ccncc1)C(=O)c1ccc([C@H]2C[C@@]3(C)[C@@H](CC[C@@]3(O)C(F)(F)C(F)(F)F)[C@@H]3CCC4=CC(=O)CCC4=C32)cc1 [Example 33, 4-[(11β,17β)-17-hydroxy-3-oxo-17-(pentafluoroethyl)estra-4,9-dien-11-yl]-N-methyl-N-(pyridin-4-ylmethyl)benzamide] | 6.98
C[C@]12C[C@H](c3ccc(C(=O)Nc4ccc(C(N)=O)cc4)cc3)C3=C4CCC(=O)C=C4CC[C@H]3[C@@H]1CC[C@@]2(O)C(F)(F)C(F)(F)F [Example 41, N-(4-carbamoylphenyl)-4-[(11β,17β)-17-hydroxy-3-oxo-17-(pentafluoroethyl)estra-4,9-dien-11-yl]benzamide] | 4.7
CN(C)C(=O)N1CCN(C(=O)c2ccc([C@H]3C[C@@]4(C)[C@@H](CC[C@@]4(O)C(F)(F)C(F)(F)F)[C@@H]4CCC5=CC(=O)CCC5=C43)cc2)CC1 [Example 66, 4-{4-[(11β,17β)-17-hydroxy-3-oxo-17-(pentafluoroethyl)estra-4,9-dien-11-yl]benzoyl}-N,N-dimethylpiperazine-1-carboxamide] | 35
CN1CCN(CCNC(=O)c2ccc([C@H]3C[C@@]4(C)[C@@H](CC[C@@]4(O)C(F)(F)C(F)(F)F)[C@@H]4CCC5=CC(=O)CCC5=C43)cc2)CC1 [Example 62, 4-[(11β,17β)-17-hydroxy-3-oxo-17-(pentafluoroethyl)estra-4,9-dien-11-yl]-N-[2-(4-methylpiperazin-1-yl)ethyl]benzamide] | 94
COc1cccc(NC(=O)c2ccc([C@H]3C[C@@]4(C)[C@@H](CC[C@@]4(O)C(F)(F)C(F)(F)F)[C@@H]4CCC5=CC(=O)CCC5=C43)cc2)c1 [Example 24, 4-[(11β,17β)-17-hydroxy-3-oxo-17-(pentafluoroethyl)estra-4,9-dien-11-yl]-N-(3-methoxyphenyl)benzamide] | 3.7
